Results published in US20220380383A1, “NEUROPROTECTIVE PDI MODULATING SMALL MOLECULES AND METHODS OF USE THEREOF” (THE TRUSTEES OF COLUMBIA UNIVERSITY IN THE CITY OF NEW YORK, priority 2018, published 2022).
Entries after “also recorded” stand apart in the source; their conditions may differ.

What was measured:
Adenosine A2A = Adenosine A2A (Homo sapiens, UniProt P29274); experiment: Off-target panel, Adenosine A2A; format: binding; details: Conc. 3 μM
Adrenergic α1B = Adrenergic α1B (Rattus norvegicus, UniProt P15823); experiment: Off-target panel, Adrenergic α1B; format: binding; details: Conc. 3 μM
Cannabinoid CB1 = Cannabinoid CB1 (Homo sapiens, UniProt P21554); experiment: Off-target panel, Cannabinoid CB1; format: binding; details: Conc. 3 μM
Muscarinic M3 = Muscarinic M3 (Homo sapiens, UniProt P20309); experiment: Off-target panel, Muscarinic M3; format: binding; details: Conc. 3 μM
[1] = target: Serotonin (5-Hydroxytryptamine) 5-HT2B (Homo sapiens, UniProt P41595); experiment: Off-target panel, Serotonin 5-HT2B; format: binding; details: Conc. 3 μM
ADORA2A = target: T1, ADORA2A (Homo sapiens, UniProt P29274); experiment: Safety47 panel GPCR ADORA2A; format: cell-based; details: 3 μM
T1 construct: CEREP (CRO that ran the panel)
Text: (§1) LOC14 was also submitted for testing in CEREP's Safety47 panel. CEREP is a CRO specializing in preclinical research, discovery and development of new pharmaceutical drugs.

NET = target: T2, NET (Homo sapiens, UniProt P23975); experiment: Safety47 panel transporter NET; format: cell-based; details: Blocker mode; 3 μM
T2 construct: CEREP (CRO panel)
Text: as §1

GABAA = experiment: Safety47 panel ion channel GABAA; format: cell-based, human; details: 3 μM
Text: as §1

NMDAR (1A/2B) = target: T3, NMDAR (1A/2B) (Homo sapiens, UniProt Q05586+Q13224); experiment: Safety47 panel ion channel NMDAR (1A/2B); format: cell-based; details: 3 μM
T3 construct: CEREP (CRO panel)
Text: as §1

MAOA = target: T4, MAOA (Homo sapiens, UniProt P21397); experiment: Safety47 panel non-kinase enzyme MAOA; format: biochemical; details: Inhibitor mode; 3 μM
T4 construct: CEREP (CRO panel)
Text: as §1

PDE4D2 = target: T5, PDE4D2 (Homo sapiens, UniProt Q08499); experiment: Safety47 panel non-kinase enzyme PDE4D2; format: biochemical; details: Inhibitor mode; 3 μM
T5 construct: CEREP (CRO panel)
Text: as §1

ST14A mHTTQ120 cells = experiment: Rescue of ST14A mHTTQ120 cells (39° C., serum starved, CellTiter-Glo); format: cell-based, rat; details: 48 hours
Text: (§2) Having elucidated the molecular mechanism of LOC14's binding to PDI, we next tested whether PDI modulation with LOC14 would be effective in neurodegenerative disease models. First, we evaluated LOC14's neuroprotection in rat neuron-like PC12 cells stably transfected with an inducible plasmid for truncated mutant huntingtin protein (mHTT^Q103). […] We next evaluated the activity of LOC14 in cells that more closely represent the medium-size spiny neurons affected in Huntington Disease patients. We used rat embryonic day 14 striatal neuronal cells (ST14A) immortalized by transduction of temperature-sensitive SV40 large T antigen (Cattaneo and Conti, 1998; Ehrlich et al. 2001; Rigamonti et al. 2000). Under serum deprivation and at 39° C., where large T antigen is degraded, ST14A cells undergo cell death within 48-72 hours. This death was rescued by treatment with LOC14 (FIG. 13B).

parental ST14A cells = experiment: Rescue of parental ST14A cells (39° C., serum starved, CellTiter-Glo); format: cell-based, rat; details: 48 hours
Text: as §2

[2] = system: cortical pyramidal neurons in rat coronal brain slice explants co-transfected with YFP and Tau-4R; experiment: AD brain slice model (Tau-4R); format: cell-based
Text: The cortical regions of each brain slice were then scored for numbers of healthy pyramidal neurons remaining. Data are plotted as means±SEM. Graph represents an average of 3 independent experimental runs. Significant difference is denoted with * with respect to the Tau-4R condition by ANOVA followed by Dunnett's post hoc comparison test at p<0.05.
To see if the mechanism of LOC14 protection can ameliorate other neurodegenerative disease phenotypes, we used a brain slice model of Alzheimer's disease (AD) in which the degeneration of cortical pyramidal neurons is induced via transfected tau protein containing four repeats of the microtubulin-binding domain (Tau-4R). Rat coronal brain slice explants were co-transfected with YFP and Tau-4R and treated with LOC14, benzoisothiazolone, or DMSO vehicle-only for 3 days. The cortical region of each brain slice was then scored for number of healthy pyramidal neurons remaining.

[3] = system: striatal medium spiny neurons in brain slice explants co-transfected with YFP and mHTT; experiment: HD brain slice assay; format: cell-based, rat
Method: Resonances with large chemical shifts are labeled in green. Rat coronal brain slice explants co-transfected with YFP and Tau-4R (FIG. 16B) or striatal brain slice explants co-transfected with YFP and mHTT (FIG. 16C) were treated with LC-43 or DMSO carrier-only for 3 days. The respective regions of each brain slice were then scored for numbers of healthy (FIG. 16B) pyramidal or (FIG. 16C) medium spiny neurons remaining. Data are normalized to the negative control condition set to 100% and plotted as means±SEM. In FIG. 16D, The confocal images shown are maximal z-stacks of 0.5 μm steps (˜20 images per stack). (Bottom) Reduction of neuronal redox state by LC-43. Left, Primary neurons were co-transfected with mCherry (to positively identify transfected neurons) and the genetically encoded ratiometric redox reporter roGFP2. Four days later, the culture medium was changed into an identical formulation except without conventional antioxidant additives. […]
Brain slice explants were prepared and transfected as previously described (Reinhart et al., 2011). […] Striatal medium spiny neurons (MSNs) expressing YFP were visualized under fluorescence microscopy and identified based on their location within brain slices and their characteristic morphology.

T3 sequence (Q13224 27-1484, other chains not shown): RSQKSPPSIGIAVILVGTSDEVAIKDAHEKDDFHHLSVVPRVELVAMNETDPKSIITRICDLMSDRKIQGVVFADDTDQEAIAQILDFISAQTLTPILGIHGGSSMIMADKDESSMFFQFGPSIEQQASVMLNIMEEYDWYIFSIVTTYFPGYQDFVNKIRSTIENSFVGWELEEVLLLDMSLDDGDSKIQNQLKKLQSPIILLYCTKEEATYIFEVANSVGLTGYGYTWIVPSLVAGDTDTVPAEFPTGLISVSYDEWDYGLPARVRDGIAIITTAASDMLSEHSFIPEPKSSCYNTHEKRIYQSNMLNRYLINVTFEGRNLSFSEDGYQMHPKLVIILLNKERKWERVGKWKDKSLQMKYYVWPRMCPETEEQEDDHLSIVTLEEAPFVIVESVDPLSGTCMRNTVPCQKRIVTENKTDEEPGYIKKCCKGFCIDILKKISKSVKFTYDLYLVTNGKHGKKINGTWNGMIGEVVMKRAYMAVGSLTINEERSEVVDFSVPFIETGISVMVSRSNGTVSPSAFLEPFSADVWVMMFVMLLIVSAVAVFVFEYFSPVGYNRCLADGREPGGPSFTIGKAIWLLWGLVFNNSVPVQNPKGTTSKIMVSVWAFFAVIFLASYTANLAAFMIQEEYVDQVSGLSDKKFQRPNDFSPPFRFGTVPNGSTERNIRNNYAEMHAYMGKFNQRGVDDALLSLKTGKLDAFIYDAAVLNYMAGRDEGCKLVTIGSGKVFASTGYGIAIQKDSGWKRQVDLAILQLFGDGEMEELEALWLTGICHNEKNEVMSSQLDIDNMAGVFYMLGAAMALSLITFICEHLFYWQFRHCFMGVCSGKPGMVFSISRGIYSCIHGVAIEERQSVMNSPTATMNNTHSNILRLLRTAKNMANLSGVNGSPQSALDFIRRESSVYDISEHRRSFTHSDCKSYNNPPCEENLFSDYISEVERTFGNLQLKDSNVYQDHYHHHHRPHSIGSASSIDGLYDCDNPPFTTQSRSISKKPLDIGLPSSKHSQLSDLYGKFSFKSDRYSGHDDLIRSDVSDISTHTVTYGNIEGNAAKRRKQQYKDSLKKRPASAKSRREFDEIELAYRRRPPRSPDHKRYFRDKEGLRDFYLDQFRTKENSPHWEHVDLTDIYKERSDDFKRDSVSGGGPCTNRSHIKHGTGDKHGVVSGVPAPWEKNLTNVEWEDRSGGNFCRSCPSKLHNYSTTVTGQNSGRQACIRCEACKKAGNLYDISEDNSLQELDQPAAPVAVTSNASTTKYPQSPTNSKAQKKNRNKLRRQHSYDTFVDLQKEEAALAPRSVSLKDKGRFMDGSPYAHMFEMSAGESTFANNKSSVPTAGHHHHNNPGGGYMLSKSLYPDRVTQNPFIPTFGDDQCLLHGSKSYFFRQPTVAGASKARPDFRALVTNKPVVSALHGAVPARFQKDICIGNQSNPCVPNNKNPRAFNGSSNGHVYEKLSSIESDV
T1 sequence (P29274 whole entry): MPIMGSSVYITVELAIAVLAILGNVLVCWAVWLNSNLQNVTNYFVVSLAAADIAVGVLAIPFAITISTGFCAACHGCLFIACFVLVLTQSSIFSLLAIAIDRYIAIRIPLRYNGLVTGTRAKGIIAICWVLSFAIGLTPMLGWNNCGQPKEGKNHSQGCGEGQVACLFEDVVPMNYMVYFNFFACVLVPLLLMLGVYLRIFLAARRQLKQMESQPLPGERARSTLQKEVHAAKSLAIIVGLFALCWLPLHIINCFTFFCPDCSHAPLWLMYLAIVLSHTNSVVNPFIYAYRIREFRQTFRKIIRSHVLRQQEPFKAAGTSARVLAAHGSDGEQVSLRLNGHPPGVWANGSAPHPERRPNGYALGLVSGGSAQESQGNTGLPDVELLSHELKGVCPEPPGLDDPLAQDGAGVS
Muscarinic M3, sequence (P20309 whole entry): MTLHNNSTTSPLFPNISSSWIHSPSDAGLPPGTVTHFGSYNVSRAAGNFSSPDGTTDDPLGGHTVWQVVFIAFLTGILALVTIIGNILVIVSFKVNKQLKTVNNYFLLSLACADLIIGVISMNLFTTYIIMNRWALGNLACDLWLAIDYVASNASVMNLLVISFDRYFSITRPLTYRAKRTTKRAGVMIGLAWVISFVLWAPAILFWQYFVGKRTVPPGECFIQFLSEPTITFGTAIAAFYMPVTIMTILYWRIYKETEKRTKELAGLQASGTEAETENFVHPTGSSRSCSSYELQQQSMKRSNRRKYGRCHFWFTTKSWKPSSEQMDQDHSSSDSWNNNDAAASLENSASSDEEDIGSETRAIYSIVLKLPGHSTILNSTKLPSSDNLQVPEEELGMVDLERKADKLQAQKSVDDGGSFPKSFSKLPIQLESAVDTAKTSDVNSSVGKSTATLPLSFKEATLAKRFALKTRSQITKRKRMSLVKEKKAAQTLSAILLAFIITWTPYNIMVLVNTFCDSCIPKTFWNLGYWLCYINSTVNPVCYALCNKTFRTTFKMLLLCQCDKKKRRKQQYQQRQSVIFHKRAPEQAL
Cannabinoid CB1, sequence (P21554 whole entry): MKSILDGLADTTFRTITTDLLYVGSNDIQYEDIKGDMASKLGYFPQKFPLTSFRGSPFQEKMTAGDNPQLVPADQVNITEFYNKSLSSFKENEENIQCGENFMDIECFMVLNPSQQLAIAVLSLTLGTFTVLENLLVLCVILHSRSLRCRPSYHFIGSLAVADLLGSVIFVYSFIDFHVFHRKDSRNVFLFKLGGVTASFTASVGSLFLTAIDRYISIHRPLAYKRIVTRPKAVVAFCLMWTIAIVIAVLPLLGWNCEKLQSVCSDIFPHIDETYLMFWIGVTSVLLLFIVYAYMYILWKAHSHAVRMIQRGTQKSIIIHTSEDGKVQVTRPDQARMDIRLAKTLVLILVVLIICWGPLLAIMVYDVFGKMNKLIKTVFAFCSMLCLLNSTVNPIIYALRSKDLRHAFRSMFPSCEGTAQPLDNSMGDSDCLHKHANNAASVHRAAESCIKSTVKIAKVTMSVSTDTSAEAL
Adrenergic α1B, sequence (P15823 whole entry): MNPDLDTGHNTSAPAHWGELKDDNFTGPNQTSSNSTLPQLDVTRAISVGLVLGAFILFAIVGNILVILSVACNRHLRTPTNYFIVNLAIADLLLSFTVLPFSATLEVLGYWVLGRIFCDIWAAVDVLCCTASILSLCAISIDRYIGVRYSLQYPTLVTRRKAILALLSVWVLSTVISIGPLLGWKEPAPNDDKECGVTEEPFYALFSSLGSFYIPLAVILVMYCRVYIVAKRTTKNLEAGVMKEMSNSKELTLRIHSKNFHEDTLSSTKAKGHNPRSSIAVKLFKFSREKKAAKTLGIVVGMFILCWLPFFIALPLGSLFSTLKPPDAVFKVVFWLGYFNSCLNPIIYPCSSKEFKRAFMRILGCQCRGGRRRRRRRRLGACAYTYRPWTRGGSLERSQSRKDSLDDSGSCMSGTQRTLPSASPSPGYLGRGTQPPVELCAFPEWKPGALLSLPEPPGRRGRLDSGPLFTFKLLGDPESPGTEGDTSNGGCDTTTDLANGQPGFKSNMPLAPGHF
Adenosine A2A, sequence (P29274 whole entry): as the sequence (P29274 whole entry) above
T5 sequence (Q08499 303-809): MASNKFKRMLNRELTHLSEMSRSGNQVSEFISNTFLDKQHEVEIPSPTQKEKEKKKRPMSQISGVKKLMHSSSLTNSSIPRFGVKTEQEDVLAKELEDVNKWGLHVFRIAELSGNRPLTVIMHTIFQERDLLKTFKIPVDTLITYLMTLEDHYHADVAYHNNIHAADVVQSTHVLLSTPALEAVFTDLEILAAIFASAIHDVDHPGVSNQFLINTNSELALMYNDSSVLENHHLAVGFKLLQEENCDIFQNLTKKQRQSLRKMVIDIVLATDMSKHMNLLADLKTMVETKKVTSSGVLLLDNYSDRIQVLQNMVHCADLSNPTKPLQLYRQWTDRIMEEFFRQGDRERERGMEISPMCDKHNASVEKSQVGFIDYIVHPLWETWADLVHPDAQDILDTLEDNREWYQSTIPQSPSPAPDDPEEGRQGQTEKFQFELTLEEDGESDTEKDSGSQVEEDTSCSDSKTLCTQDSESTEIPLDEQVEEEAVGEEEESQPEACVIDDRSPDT
T2 sequence (P23975 whole entry): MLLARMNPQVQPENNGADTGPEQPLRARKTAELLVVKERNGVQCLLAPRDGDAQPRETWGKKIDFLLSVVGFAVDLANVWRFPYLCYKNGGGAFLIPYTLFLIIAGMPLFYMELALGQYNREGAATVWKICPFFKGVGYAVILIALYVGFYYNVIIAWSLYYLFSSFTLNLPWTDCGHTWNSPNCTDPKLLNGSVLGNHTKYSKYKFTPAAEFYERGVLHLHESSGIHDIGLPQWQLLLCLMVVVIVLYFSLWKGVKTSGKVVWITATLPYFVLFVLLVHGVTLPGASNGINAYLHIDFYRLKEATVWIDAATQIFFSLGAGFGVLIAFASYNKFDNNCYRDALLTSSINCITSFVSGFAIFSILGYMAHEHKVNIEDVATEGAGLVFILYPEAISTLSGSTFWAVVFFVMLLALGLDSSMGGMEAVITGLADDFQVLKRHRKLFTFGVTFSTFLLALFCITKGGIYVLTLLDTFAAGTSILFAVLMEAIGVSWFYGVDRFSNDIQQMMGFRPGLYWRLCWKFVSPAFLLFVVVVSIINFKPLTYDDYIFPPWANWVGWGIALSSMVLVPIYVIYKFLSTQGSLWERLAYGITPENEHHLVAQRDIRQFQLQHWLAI

Structure (SMILES) | inhibition at 3 µM (Adenosine A2A) [%] | inhibition at 3 µM (Adrenergic α1B) [%] | inhibition at 3 µM (Cannabinoid CB1) [%] | inhibition at 3 µM (Muscarinic M3) [%] | inhibition at 3 µM [1] [%] | Average % Response (ADORA2A; Agonist mode) [%] | Average % Response (ADORA2A; Antagonist mode) [%] | Average (NET) | Average (GABAA; Blocker mode) | Average (GABAA; Opener mode) | Average (NMDAR (1A/2B); Blocker mode) | Average (NMDAR (1A/2B); Opener mode) | Average (MAOA) | Average (PDE4D2) | EC100 (ST14A mHTTQ120 cells) [nM] | EC100 (parental ST14A cells) [nM] | protection of pyramidal neurons in AD brain slice ([2]; 3 days treatment) | concentration that provided peak rescue ([2]; AD brain slice assay) [µM] | rescue of medium spiny neurons in HD brain slice ([3]; 3 days treatment) | concentration that provided peak rescue ([3]; HD brain slice assay) [µM]
O=C(C1CC1)N1CCN(Cn2sc3ccccc3c2=O)CC1 [LOC14] | -4 | 2 | -22 | -4 | 36 | 2.6 | 2.4 | 0.0 | 5.1 | 0.0 | 0.0 | 1.7 | 9.9 | 0.0 | 6 | 24 |  |  |  | 
O=C(C1CC1)N1CCN(Cn2sc3c(F)cccc3c2=O)CC1 [LC-43] |  |  |  |  |  |  |  |  |  |  |  |  |  |  |  |  | dose-dependent rescue; also recorded: robust neuroprotection | 10 | dose-dependent rescue; also recorded: robust neuroprotection | 10
